Test results from ChEMBL document CHEMBL1158661, “Celenamide E, a Tripeptide Alkaloid from the Patagonian Sponge Cliona chilensis” (J Nat Prod, 1998).
Activity calls are given as the source filed them.

Columns and labels:
Assay type in all cases: functional, organism-based
Staphylococcus aureus = assay: Antibiotic activity against Staphylococcus aureus at 50 ug/disk
Micrococcus luteus = assay: Antibiotic activity against Micrococcus luteus at 50 ug/disk
Bacillus subtilis = assay: Antibiotic activity against Bacillus subtilis at 50 ug/disk
Enterococcus faecalis = assay: Antibiotic activity against Enterococcus faecalis at 50 ug/disk

Measured: Activity

N/C(=C\c1cc(O)c(O)c(O)c1)C(=O)N[C@@H](Cc1c[nH]c2cc(Br)ccc12)C(=O)N/C=C/c1ccc(O)c(O)c1
active: all assays above
